Consider three molecules from US8389440B2, “Synergistic insecticide mixtures” (Bayer Cropscience AG, priority 2002, dated 2013).

The subject of series [1] is Heliothis armigera caterpillars. The experiment in a line: Heliothis armigera test. It is filed as in vivo. Conditions: found effect, dipped soya bean shoots.
The test system of series [2] is mustard beetle larvae (Phaedon cochleariae). The experiment in a line: Phaedon larvae test. It is filed as in vivo. The conditions noted are these: found effect, dipped cabbage leaves.
Series [3] relates to army worm caterpillars (Spodoptera frugiperda). In words: Spodoptera frugiperda test. Conditions: found effect, dipped cabbage leaves. Type of series: in vivo. From the text:
Spodoptera Frugiperda Test

In series [4] the test system is diamond-back moth caterpillars (Plutella xylostella, resistant strain). Conditions: found effect, dipped cabbage leaves.
Procedure: Plutella Test, Resistant Strain
After the desired period, the destruction in % is determined. 100% means that all of the caterpillars have been destroyed; 0% means that no caterpillars have been destroyed.

For the molecule `CC[C@H](C)[C@H]1O[C@]2(C=C[C@@H]1C)C[C@@H]1C[C@@H](C/C=C(\C)[C@@H](O[C@H]3C[C@H](OC)[C@@H](O[C@H]4C[C@H](OC)[C@@H](O)[C@H](C)O4)[C@H](C)O3)[C@@H](C)/C=C/C=C3\CO[C@@H]4[C@H](O)C(C)=C[C@@H](C(=O)O1)[C@]34O)O2` [Avermectin, abamectin], the “LC50 after 6 days” value in series [1] stood at 0.014 ppm; in series [3], 5.553 ppm. For the same molecule, the “LC95 after 3 days” value in series [2] came out at 0.281 ppm.

For `CN/C(=N\[N+](=O)[O-])NCC1CCOC1` (centres unmarked) [Dinotefuran, dinotefuran], the “LC50 after 6 days” value in series [1] was determined as 13.165 ppm; in series [3], 2.861 ppm; in series [4], 27.621 ppm. For the same molecule, the “LC95 after 3 days” value in series [2] turned out to be 42.07 ppm.

For emamectin benzoate, the “LC50 after 6 days” value in series [4] is listed as 0.174 ppm.
